Measured values reported in patent US10100011B2, “Pentadienoyl piperidine derivative and use thereof” (Industry-Academic Cooperation Foundation, Yonsei University, priority 2014, dated 2018).

Assays:
C57BL/6J mice = assay: Body weight and visceral fat weight in mice fed high-fat diet; format: in vivo, mouse; settings: high-fat diet with about 0.05% compound (sibutramine about 0.01%), 10 weeks
Procedure: An obesity induction diet used in this experiment was a high-fat diet (HFD: 40% fat calories, 17 g of lard+3% corn oil/100 g diet), and the compositions of diets including the LJ-2501, LJ-2488, LJ-2495, LJ-2496 compounds were identical to that of HFD, except that each of the compounds was included in an amount of about 0.05% (Table 2). As a control drug, an anti-obesity drug, sibutramine (Sibut), was added in an amount of about 0.01% to the high-fat diet and a normal diet group (Chow) was fed with commercial rodent chow.
5-week old 40 male C57BL/6J mice (Orient Bio., Korea) were fed with hard feed and accommodated in a laboratory environment for one week. Subsequently, in accordance with a randomized block method, the mice were randomly grouped into a normal diet group, a high-fat diet control group, two experimental substance groups, and […] and raised for a total of 10 weeks (n=8/group). Diets were supplied with water between 10 am and 11 am every day. An intake amount was measured every day and the body weights of the mice were measured every week. To prevent temporal weight change due to feed intake, feedboxes were removed and, after two hours, the body weights were measured. The experimental animals were fasted for 12 hours or more and then anesthetized with diethyl ether, followed by collecting blood, liver, and visceral adipose tissues (epididymal fat, perirenal fat, mesenteric fat, and retroperitoneal fat). The collected samples were washed with 0.1 M phosphate buffered saline (pH 7.4) and then weighed. Blood samples collected from abdominal aortas were centrifuged at 1000×g for 15 minutes, thereby separating plasma.

3T3L1 cells = assay: Adipocyte differentiation inhibition in preadipocytes (Oil-red O staining); format: cell-based, mouse; settings: for adipocyte differentiation inhibition effect (in words): different concentrations
Procedure: Preadipocytes, 3T3L1 cells, were aliquoted into a 12-well plate and cultured in a DMEM medium containing 1% penicillin-streptomycin, 1% nonessential amino acid, and 10% fetal bovine serum (FBS) in a 5% CO2 incubator at 37° C. until confluence. The 3T3L1 cells grown to confluence were cultured for two days in a medium containing 0.5 mM isobutyl-methylxanthine, 1 μM dexamethasone (MDI), and 1 μg/ml insulin, thereby being differentiated into adipocytes. Subsequently, the differentiated adipocytes were further cultured for two days in a DMEM medium including 1 μg/ml insulin, thereby being differentiated into mature adipocytes. Subsequently, the differentiated mature adipocytes were further cultured for 10 days while replacing a used DMEM medium with a new DMEM medium every two days. As a result, completely differentiated adipocytes were formed.
3T3-L1 cells were treated with each of a total of four novel compound types at different concentrations every two days from the first day of cell differentiation induction by addition of DMI. Each of the derivative compounds was dissolved in DMSO and then used. A negative control group including only DMSO was included in this experiment. Cell culture was carried out for 14 days. When differentiation was completed, a medium was removed and lipid droplets contained in differentiated adipocytes were stained. To stain the lipid droplets, cells were washed with phosphate buffered saline (PBS) twice and then fixed with 10% buffered neutral formalin for one hour, followed by washing with PBS once. Subsequently, 1 ml of Oil-red-O dye for staining lipid droplets red was fed into a 12-well plate and lipid droplets were stained for one hour, followed by washing with distilled water twice. To measure the concentration of neutral fat contained in the differentiated 3T3L1 cells, the stained lipid droplets were dissolved in 1 ml of isobutanol, followed by measuring an O.D value at 600 nm.

Row | Compound | visceral fat reduction effect, change vs HFD (given with minus sign) (C57BL/6J mice) [%] | weight reduction effect, change in cumulative weight gain vs HFD (given with minus sign) (C57BL/6J mice) [%] | EC50 (3T3L1 cells; Mus musculus, 3T3-L1, treated every two days during 14 days differentiation, Oil-red O O.D. 600 nm, read-out: preadipocyte differentiation inhibition effect, EC50 value) [µM] | adipocyte differentiation inhibition effect (in words) (3T3L1 cells)
1 | COc1ccc(OC)c(/C=C/C=C/C(=O)N2CCCCC2)c1 [LJ-2488, (2E,4E)-5-(2,5-dimethoxyphenyl)-1-(piperine-1-yl)penta-2,4-diene-1-one] | −6 | −14 | 2800 | 
2 | CCOc1ccc(/C=C/C=C/C(=O)N2CCCCC2)cc1 [LJ-2495, (2E,4E)-5-(4-ethoxyphenyl)-1-(piperine-1-yl)penta-2,4-diene-1-one] |  |  |  | did not exhibit an adipocyte differentiation inhibition effect
3 | CCCOc1ccc(/C=C/C=C/C(=O)N2CCCCC2)cc1 [LJ-2496, (2E,4E)-1-(piperine-1-yl)-5-(4-propoxyphenyl)penta-2,4-diene-1-one] |  |  |  | did not exhibit an adipocyte differentiation inhibition effect
4 | CC(C)CC(N(C)C)C1(c2ccc(Cl)cc2)CCC1 (stereo not shown) [sibutramine, reference compound] | −22 | −33 |  | 
